Patent US5304549A, “Amino acid derivatives” (Hoffmann-La Roche Inc., priority 1991, dated 1994)
Counter-ions that a name gives are not always drawn.

Target: T1, collagenase obtained from a culture of human synovial fibroblasts (Homo sapiens, UniProt P03956)
T1 construct: endogenous in cells; host or cells: human synovial fibroblasts in culture (conditioned medium)
T1 sequence (P03956 100-469): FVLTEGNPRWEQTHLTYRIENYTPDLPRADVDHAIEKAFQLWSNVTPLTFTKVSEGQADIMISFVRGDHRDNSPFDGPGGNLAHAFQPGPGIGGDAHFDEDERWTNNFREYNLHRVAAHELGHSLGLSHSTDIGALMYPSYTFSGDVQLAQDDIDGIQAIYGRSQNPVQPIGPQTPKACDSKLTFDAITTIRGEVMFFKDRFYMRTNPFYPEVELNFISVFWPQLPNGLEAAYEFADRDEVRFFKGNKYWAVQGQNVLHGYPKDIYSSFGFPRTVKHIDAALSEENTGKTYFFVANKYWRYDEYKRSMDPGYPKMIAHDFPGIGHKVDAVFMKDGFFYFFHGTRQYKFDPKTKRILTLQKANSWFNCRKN
Experiment: in vitro collagenase inhibiting activity (14C-acetylated collagen type I from rat tail tendons as substrate, microtitre plate assay)
Assay type: biochemical
Details: human synovial fibroblast collagenase, trypsin-activated; 14C-acetylated rat tail tendon collagen type I

IC50 | SMILES
4 nM | CNC(=O)[C@@H](NC(=O)C(CC(C)C)CP(=O)(O)CN1C(=O)c2cccc3c(O)c(Br)cc(c23)C1=O)C(C)(C)C (single isomer, unassigned) [Compound B, N^2-[2(R or S)-[[[(5-bromo-2,3-dihydro-6-hydroxy-1,3-dioxo-1H-benz[d,e]isoquinol-2-yl)methyl](hydroxy)phosphinyl]methyl]-4-methylvaleryl]-N^1,3-dimethyl-L-valinamide]
9 nM | CNC(=O)C(NC(=O)C(CC(C)C)C(N)P(=O)(O)CN1C(=O)c2cccc3c(O)c(Br)cc(c23)C1=O)C(C)(C)C (single isomer, unassigned) [Compound C, N^2-[2-(R or S)-[[(R)-(amino)-[(5-bromo-2,3-dihydro-6-hydroxy-1,3-dioxo-1H-benz[d,e]isoquinol-2-yl)methyl](hydroxy)phosphinyl]methyl]-4-methylvaleryl]-N^1,3-dimethyl-L-valinamide hydrobromide]
0.9 nM | CNC(=O)[C@@H](NC(=O)[C@H](CC(C)C)C(CCCC(=O)OC)C(=O)NO)C(C)(C)C (single isomer, unassigned) [Compound F, N^2-[2(R)-[1(R or S)-(hydroxycarbamoyl)-4-(methoxycarbonyl)butyl]-4-methylvaleryl]-N^1,3-dimethyl-L-valinamide]
1.9 nM | CNC(=O)[C@@H](NC(=O)[C@H](CC(C)C)C(CCCc1ccccc1)C(=O)NO)C(C)(C)C (single isomer, unassigned) [Compound G, N^2-[2(R)-[1(R or S)-(hydroxycarbamoyl)-4-phenylbutyl]-4-methylvaleryl]-N^1,3-dimethyl-L-valinamide]
0.5 nM | CNC(=O)[C@@H](NC(=O)[C@H](CC(C)C)C(CN1C(=O)CCC1=O)C(=O)NO)C(C)(C)C (single isomer, unassigned) [Compound H, N^2-[2(R)-[1(R or S)-(hydroxycarbamoyl)-2-succinimidoethyl]-4-methylvaleryl]-N^1,3-dimethyl-L-valinamide]
2 nM | CNC(=O)[C@@H](NC(=O)C(CC(C)C)[C@H](C)C(=O)NO)C(C)(C)C (single isomer, unassigned; isomer 2) [Compound D, N^2-[2(R or S)-[1(S)-(hydroxycarbamoyl)ethyl]-4-methylvaleryl]-N^1,3-dimethyl-L-valinamide (isomer 2)]
4 nM | CNC(=O)[C@@H](NC(=O)[C@@H](CC(=O)NO)CC(C)C)C(C)(C)C [Compound A, N^2-[2(R)-[Hydroxycarbamoylmethyl]-4-methylvaleryl]-N^1,3-dimethyl-L-valinamide]
